Source: patent US7265107B2, “Rifamycin C-11 oxime cyclo derivatives effective against drug-resistant microbes” (Cumbre Pharmaceuticals Inc., priority 2004, dated 2007)
In brackets after ≈: the same amount, converted by molar mass.

Columns and labels:
Assay type in all cases: cell-based
[1] = tested on: Streptococcus pneumoniae ATCC6303; details: rifS, THY Broth with 1 mg/mL catalase, 5% CO2, 37° C., read-out: Antimicrobial activity (MIC)
[2] = tested on: Enterococcus faecalis ATCC29212; details: rifS, BHI Broth, 37° C., read-out: Antimicrobial activity (MIC)
[3] = tested on: Haemophilus influenzae ATCC10211; details: rifS, BHI Broth with NAD and hematin, 37° C., read-out: Antimicrobial activity (MIC)
[4] = tested on: Staphylococcus aureus EN1252a gvrA^S84L grlA^S80F; assay: microbe, parasite or virus in culture; details: cipR, Cation-Adjusted Mueller-Hinton Broth, 37° C., read-out: Antimicrobial activity (MIC)
Procedure: Representative compounds were assayed for antimicrobial activity as follows: Minimum Inhibitory Concentrations (“MICs”) were determined by the microbroth dilution method as per NCCLS guidelines (National Committee for Clinical Laboratory Standards. 2000. Methods for dilution antimicrobial susceptibility tests for bacteria that grow aerobically, 5th ed. M7-A5. National Committee for Clinical Laboratory Standards, Wayne, Pa.), except that all growth incubations were conducted at 37° C. Bacterial cultures were tested in the following bacteriological media: S. aureus, S. epidermidis, and E. coli in Cation-Adjusted Mueller-Hinton Broth, S. pneumoniae in THY Broth supplemented with 1 mg/mL catalase under 5% CO2 atmosphere, S. pyogenes in THY Broth, E. faecalis in BHI Broth, H. influenzae in BHI Broth supplemented with 0.75 μL of 1 mg/mL NAD and 150 μL of 1 mg/ml hematin per 5 mL, and M. smegmatis in Middlebrook Broth plus ADC Enrichment.
S. aureus EN1252a gyrA^S84L grlA^S80F is a quinolone-resistant strain due to double mutations to the genes confer DNA gyrase and topoisomerase IV.

Structure (SMILES) | MIC [1] [ng/mL] | MIC [2] [ng/mL] | MIC [3] [ng/mL] | MIC [4] [ng/mL]
CO[C@H]1/C=C/O[C@@]2(C)Oc3c(C)c(O)c4c(c3/C2=N/O)C2=NC3(CCN(CC(C)C)CC3)NC2=C(NC(=O)/C(C)=C\C=C\[C@H](C)[C@H](O)[C@@H](C)[C@@H](O)[C@@H](C)[C@H](OC(C)=O)[C@@H]1C)C4=O [Example 4, 11-Deoxy-11-hydroxyimino-1′,4-didehydro-1-deoxy-1,4-dihydro-5′-(2-methylpropyl)-1-oxo-rifamycin XIV] | 0.06 to 31 (≈ 0.0696 to 36 nM) | 500 to 31200 (≈ 580 to 36300 nM) | 125 to 8000 (≈ 145 to 9280 nM) | 0.5 to 125 (≈ 0.58 to 145 nM)
CO[C@H]1/C=C/O[C@@]2(C)Oc3c(C)c(O)c4c(=O)c(c5oc6cc(N7CCN(C(C)C)CC7)cc(O)c6nc-5c4c3/C2=N/O)NC(=O)/C(C)=C\C=C\[C@H](C)[C@H](O)[C@@H](C)[C@@H](O)[C@@H](C)[C@H](OC(C)=O)[C@@H]1C [Example 9, 11-Deoxy-11-hydroxyimino-1′,4-didehydro-1-deoxy-1,4-dihydro-3′-hydroxy-5′-(4-isopropyl-1-piperazinyl)-1-oxo-rifamycin VIII] | 0.06 to 31 (≈ 0.0637 to 32.9 nM) | 500 to 31200 (≈ 531 to 33200 nM) | 125 to 8000 (≈ 133 to 8490 nM) | 0.5 to 125 (≈ 0.531 to 133 nM)
CO[C@H]1/C=C/O[C@@]2(C)Oc3c(C)c(O)c4c(=O)c(c5oc6cc(N7CCN(CCOCCO)CC7)cc(O)c6nc-5c4c3/C2=N/O)NC(=O)/C(C)=C\C=C\[C@H](C)[C@H](O)[C@@H](C)[C@@H](O)[C@@H](C)[C@H](OC(C)=O)[C@@H]1C [Example 17, 11-Deoxy-11-hydroxyimino-1′,4-didehydro-1-deoxy-1,4-dihydro-3′-hydroxy-5′-{4-[2-(2-hydroxy-ethoxy)-ethyl]-piperazin-1-yl}-1-oxo-rifamycin VIII] | 0.06 to 31 (≈ 0.0607 to 31.4 nM) | 500 to 31200 (≈ 506 to 31600 nM) | 125 to 8000 (≈ 127 to 8100 nM) | 0.5 to 125 (≈ 0.506 to 127 nM)
CO[C@H]1/C=C/O[C@@]2(C)Oc3c(C)c(O)c4c(=O)c(c5oc6cc(N7CCN(CC(C)C)CC7)cc(O)c6nc-5c4c3/C2=N/O)NC(=O)/C(C)=C\C=C\[C@H](C)[C@H](O)[C@@H](C)[C@@H](O)[C@@H](C)[C@H](OC(C)=O)[C@@H]1C [Example 5, 11-Deoxy-11-hydroxyimino-1′,4-didehydro-1-deoxy-1,4-dihydro-3′-hydroxy-5′-[4-(2-methylpropyl)-1-piperazinyl]-1-oxo-rifamycin VIII] | 0.06 to 31 (≈ 0.0628 to 32.4 nM) | 500 to 31200 (≈ 523 to 32700 nM) | 125 to 8000 (≈ 131 to 8370 nM) | 0.5 to 125 (≈ 0.523 to 131 nM)
CO[C@H]1/C=C/O[C@@]2(C)Oc3c(C)c(O)c4c(=O)c(c5oc6cc(N7CCCC7)cc(O)c6nc-5c4c3/C2=N/O)NC(=O)/C(C)=C\C=C\[C@H](C)[C@H](O)[C@@H](C)[C@@H](O)[C@@H](C)[C@H](OC(C)=O)[C@@H]1C [Example 16, 11-Deoxy-11-hydroxyimino-1′,4-didehydro-1-deoxy-1,4-dihydro-3′-hydroxy-5′-(pyrrolidin-1-yl)-1-oxo-rifamycin VIII] | 0.06 to 31 (≈ 0.0678 to 35 nM) | 500 to 31200 (≈ 565 to 35300 nM) | 125 to 8000 (≈ 141 to 9040 nM) | 0.5 to 125 (≈ 0.565 to 141 nM)
CO[C@H]1/C=C/O[C@@]2(C)Oc3c(C)c(O)c4c(c3/C2=N/OCC(=O)O)C2=NC3(CCN(CC(C)C)CC3)NC2=C(NC(=O)/C(C)=C\C=C\[C@H](C)[C@H](O)[C@@H](C)[C@@H](O)[C@@H](C)[C@H](OC(C)=O)[C@@H]1C)C4=O [Example 21, 11-Deoxy-11-(4-carboxymethoxyimino)-1′,4-didehydro-1-deoxy-1,4-dihydro-5′-(2-methylpropyl)-1-oxo-rifamycin XIV] | 0.06 to 31 (≈ 0.0652 to 33.7 nM) | 500 to 31200 (≈ 543 to 34000 nM) | 125 to 8000 (≈ 136 to 8690 nM) | 0.5 to 125 (≈ 0.543 to 136 nM)
CO[C@H]1/C=C/O[C@@]2(C)Oc3c(C)c(O)c4c(=O)c(c5oc6cc(N7CCN(C)CC7)cc(C)c6nc-5c4c3/C2=N/O)NC(=O)/C(C)=C\C=C\[C@H](C)[C@H](O)[C@@H](C)[C@@H](O)[C@@H](C)[C@H](OC(C)=O)[C@@H]1C [Example 19, 11-Deoxy-11-hydroxyimino-1′,4-didehydro-1-deoxy-1,4-dihydro-3′-methyl-5′-(4-methyl-1-piperazinyl)-1-oxo-rifamycin VIII] | 0.06 to 31 (≈ 0.0658 to 34 nM) | 500 to 31200 (≈ 548 to 34300 nM) | 125 to 8000 (≈ 137 to 8770 nM) | 0.5 to 125 (≈ 0.548 to 137 nM)
CCN1CCN(c2cc(O)c3nc4c5c6c7c(C)c(O)c5c(=O)c(c-4oc3c2)NC(=O)/C(C)=C\C=C\[C@H](C)[C@H](O)[C@@H](C)[C@@H](O)[C@@H](C)[C@H](OC(C)=O)[C@H](C)[C@@H](OC)/C=C/O[C@@](C)(O7)/C6=N\O)CC1 [Example 8, 11-Deoxy-11-hydroxyimino-1′,4-didehydro-1-deoxy-1,4-dihydro-3′-hydroxy-5′-(4-ethyl-1-piperazinyl)-1-oxo-rifamycin VIII] | 0.06 to 31 (≈ 0.0647 to 33.4 nM) | 500 to 31200 (≈ 539 to 33700 nM) | 125 to 8000 (≈ 135 to 8620 nM) | 0.5 to 125 (≈ 0.539 to 135 nM)
CO[C@H]1/C=C/O[C@@]2(C)Oc3c(C)c(O)c4c(=O)c(c5oc6cc(N(CCO)CCO)cc(O)c6nc-5c4c3/C2=N/O)NC(=O)/C(C)=C\C=C\[C@H](C)[C@H](O)[C@@H](C)[C@@H](O)[C@@H](C)[C@H](OC(C)=O)[C@@H]1C [Example 18, 11-Deoxy-11-hydroxyimino-1′,4-didehydro-1-deoxy-1,4-dihydro-3′-hydroxy-5′-[bis-(2-hydroxy-ethyl)-amino]-1-oxo-rifamycin VIII] | 0.06 to 31 (≈ 0.0653 to 33.7 nM) | 500 to 31200 (≈ 544 to 34000 nM) | 125 to 8000 (≈ 136 to 8710 nM) | 0.5 to 125 (≈ 0.544 to 136 nM)
CO[C@H]1/C=C/O[C@@]2(C)Oc3c(C)c(O)c4c(=O)c(c5oc6cc(N7CCC(N8CCCCC8)CC7)cc(O)c6nc-5c4c3/C2=N/O)NC(=O)/C(C)=C\C=C\[C@H](C)[C@H](O)[C@@H](C)[C@@H](O)[C@@H](C)[C@H](OC(C)=O)[C@@H]1C [Example 13, 11-Deoxy-11-hydroxyimino-1′,4-didehydro-1-deoxy-1,4-dihydro-3′-hydroxy-5′-[(1,4′)-bipiperidinyl-1′-yl]-1-oxo-rifamycin VIII] | 0.06 to 31 (≈ 0.0611 to 31.6 nM) | 500 to 31200 (≈ 509 to 31800 nM) | 125 to 8000 (≈ 127 to 8150 nM) | 0.5 to 125 (≈ 0.509 to 127 nM)
CO[C@H]1/C=C/O[C@@]2(C)Oc3c(C)c(O)c4c(=O)c(c5oc6cc(N7CCN(CC(C)C)CC7)ccc6nc-5c4c3/C2=N/O)NC(=O)/C(C)=C\C=C\[C@H](C)[C@H](O)[C@@H](C)[C@@H](O)[C@@H](C)[C@H](OC(C)=O)[C@@H]1C [Example 20, 11-Deoxy-11-hydroxyimino-1′,4-didehydro-1-deoxy-1,4-dihydro-5′-(4-isobutyl-1-piperazinyl)-1-oxo-rifamycin VIII] | 0.06 to 31 (≈ 0.0638 to 33 nM) | 500 to 31200 (≈ 532 to 33200 nM) | 125 to 8000 (≈ 133 to 8510 nM) | 0.5 to 125 (≈ 0.532 to 133 nM)
CO[C@H]1/C=C/O[C@@]2(C)Oc3c(C)c(O)c4c(=O)c(c5oc6cc(N7CCN(C)CC7)cc(O)c6nc-5c4c3/C2=N/O)NC(=O)/C(C)=C\C=C\[C@H](C)[C@H](O)[C@@H](C)[C@@H](O)[C@@H](C)[C@H](OC(C)=O)[C@@H]1C [Example 7, 11-Deoxy-11-hydroxyimino-1′,4-didehydro-1-deoxy-1,4-dihydro-3′-hydroxy-5′-(4-methyl-i-piperazinyl)-1-oxo-rifamycin VIII] | 0.06 to 31 (≈ 0.0656 to 33.9 nM) | 500 to 31200 (≈ 547 to 34200 nM) | 125 to 8000 (≈ 137 to 8750 nM) | 0.5 to 125 (≈ 0.547 to 137 nM)
CO[C@H]1/C=C/O[C@@]2(C)Oc3c(C)c(O)c4c(=O)c(c5oc6cc(N7CCN(CC8CCN(C)CC8)CC7)cc(O)c6nc-5c4c3/C2=N/O)NC(=O)/C(C)=C\C=C\[C@H](C)[C@H](O)[C@@H](C)[C@@H](O)[C@@H](C)[C@H](OC(C)=O)[C@@H]1C [Example 12, 11-Deoxy-11-hydroxyimino-1′,4-didehydro-1-deoxy-1,4-dihydro-3′-hydroxy-5 V-[4-(1-Methyl-piperidin-4-ylmethyl)-1-piperazinyl]-1-oxo-rifamycin VII] | 0.06 to 31 (≈ 0.0593 to 30.7 nM) | 500 to 31200 (≈ 494 to 30900 nM) | 125 to 8000 (≈ 124 to 7910 nM) | 0.5 to 125 (≈ 0.494 to 124 nM)
